# Reference: patent US20140357512A1, “HISTONE DEACETYLASE (HDAC) BIOMARKERS IN MULTIPLE MYELOMA” (priority 2013, published 2014)
# Test system: human myeloma cell line MM.1S
# Test: SILAC acetylated-lysine peptide profiling, HDAC inhibitor vs DMSO (light/heavy ratio)
# Format: cell-based
# From the text: An embodiment of the invention comprises utilizing the SILAC method in order to quantitate changes in protein expression between two or more populations of cells. The SILAC method is a technique based on mass spectrometry that detects differences in protein abundance among samples using non-radioactive isotopic labeling. The SILAC method is known in the art, and described in detail in Ong et al., “Stable Isotope Labeling by Amino Acids in Cell Culture, SILAC, as a Simple and Accurate Approach to Expression Proteomics”, Molecular & Cellular Proteomics, vol. 1, pp. 376-386 (2002), which is incorporated herein by reference in its entirety.
# Briefly, the SILAC method involves growing two populations of cells in cell culture. The first population of cells is grown in growth media containing normal amino acids (“normal media”). The second population of cells is grown in media lacking a standard essential amino acid (such as lysine), but is then supplemented with a non-radioactive, isotopically labeled form of that essential amino acid (such as lysine labeled with ^13C atoms, rather than normal ^12C atoms), which is called “heavy media”. When the two populations of cells are each growing in the medium, they incorporate the amino acids into all of their proteins. The growth of cells maintained in the heavy media is no different from that in normal media. All peptides containing the heavy amino acids are heavier than their normal counterparts. The cells from each of the two populations of cells are lysed. The lysates from each of the two cell populations are then combined. The combined cell lysates are then analyzed by mass spectrometry. Pairs of chemically identical peptides of different stable isotope composition can be differentiated in a mass spectrometer due to their difference in mass. The ratio of peak intensities in the mass spectrum for such peptide pairs reflects the abundance ratio for the two proteins.
# This example describes SILAC studies that were performed to compare the effects of three different HDAC inhibitors (Compound A, Compound B, and tubastatin A) to a control on a human multiple myeloma cell line. The HDAC inhibitors were also compared amongst themselves to determine differences in their effects.
# A human myeloma cell line MM.1S was grown using either ^12C (light) or ^13C (heavy) lysine containing culture medium. The “heavy” cells were treated with DMSO as the control, and the “light” cells were treated with a single HDAC inhibitor at 37° C. for 6 hours. The heavy and light cells were lysed, and the lysates were mixed in 1:1 ratio and digested with the protease trypsin. The acetylated lysine containing peptides (due to the action of the HDAC inhibitor) in the digested peptide pool were captured by a non-specific anti-acetylated lysine antibody cocktail (the antibodies identify both light and heavy acetylated peptides), and subjected to mass spectrometry analysis in order to identify thousands of individual peptides.
# Thousands of peptides were identified in pairs (^12C and ^13C) due to their known mass differences. The amino acid sequence and quantitative ratio (Light/Heavy) of a given peptide in two differentially treated cell lysates were then determined and annotated with their possible protein (gene) sources.
# As stated above, three HDAC inhibitors (Compound A, Compound B, and Tubastatin A) were used. Thus, the SILAC method was performed three times, with a different HDAC inhibitor compared to a control each time. Accordingly, there are three pairs of quantitative data in the table below, i.e., Compound A:DMSO, Compound B:DMSO, and Tubastatin A:DMSO. A cut-off of 1.30 fold of change (increase or decrease) was then used to determine “changed” or “+” in the table, and any peptides with a fold of change less than 1.3 fold were determined to be “unchanged” or “0” in the table. Those peptides that were not identified were marked as “NA” in the table. […]
compound,measurement,setting,value
"O=C(CCCCCCNC(=O)c1cnc(N(c2ccccc2)c2ccccc2)nc1)NO [Compound A, 2-(diphenylamino)-N-(7-(hydroxyamino)-7-oxoheptyl)pyrimidine-5-carboxamide]","light to heavy ratio (L/H ratio), log 2 scale, acetylated peptide KLQK(ac)AALLK (SEQ ID NO: 806)","Ribosomal protein L14 variant [132], gene RPL14, drug:DMSO",1.00
same,light to heavy ratio (L/H ratio) of acetylated peptide […](ac)R (SEQ ID NO: 334),"S1 IF1 type family protein [56], EIF1AXP1, drug:DMSO",0.00 log 2
same,L/H ratio of acetylated peptide LAELK(ac)QECLAR (SEQ ID NO: 94),"SARNP 17], log 2 scale, drug vs DMSO",0.00
same,L/H ratio of acetylated peptide (ac)ATETVELHK(ac)LK (SEQ ID NO: 93),"SARNP [10], log 2 scale, drug vs DMSO",0.00
same,L/H ratio of acetylated peptide ANLVFK(ac)EIEK (SEQ ID NO: 95),"SCP2 [438], log 2 scale, drug vs DMSO",0.00
same,L/H ratio of acetylated peptide EGQNWLEK(ac)K (SEQ ID NO: 96),"SEC11C [147], log 2 scale, drug vs DMSO",0.00
same,L/H ratio of acetylated peptide EHTALLK(ac)IEGVYAR,"SEQ ID NO: 630, 60S ribosomal protein L35a [29], RPL35A",0.49 log 2
same,L/H ratio of acetylated peptide FNDGSDEK(ac)KK,"SEQ ID NO: 631, ATP synthase subunit alpha mitochondrial [239], ATP5A1",0.49 log 2
same,L/H ratio of acetylated peptide FSK(ac)[…],"SEQ ID NO: 632, X-ray repair cross-complementing protein 5 [144], XRCC5",0.50 log 2
same,L/H ratio of acetylated peptide LTCEEEEEK(ac)IFGR,"SEQ ID NO: 633, Isoform Short of Probable global transcription activator SNF2L2 [1302], SMARCA2",0.51 log 2
same,L/H ratio of acetylated peptide NDEELNK(ac)LLGR,"SEQ ID NO: 634, Histone H2A type 1-B/E [96], HIST1H2AE, HIST1H2AB, HIST1H2AD, HIST1H2AG, HIST1H2AK, HIST1H2AL, HIST1H2AM, HIST1H2AJ, HIST1H2AI",0.52 log 2
same,L/H ratio of acetylated peptide ALEAVFGK(ac)YGR,"SEQ ID NO: 635, Heterogeneous nuclear ribonucleoprotein G [30], RBMX",0.52 log 2
same,L/H ratio of acetylated peptide TFK(ac)[…],"SEQ ID NO: 636, 60S ribosomal protein L3 [103], SNORD43, RPL3",0.52 log 2
same,L/H ratio of acetylated peptide YK(ac)[…],"SEQ ID NO: 637, Protein disulfide-isomerase [328], P4HB",0.52 log 2
same,L/H ratio of acetylated peptide NAEK(ac)YAEEDRR,"SEQ ID NO: 638, Stress-70 protein mitochondrial [567], HSPA9",0.52 log 2
same,L/H ratio of acetylated peptide […](ac)DR,"SEQ ID NO: 639, pyruvate dehydrogenase E1 component subunit alpha somatic form mitochondrial isoform 2 precursor [359], PDHA1",0.53 log 2
same,L/H ratio of acetylated peptide GVDPK(ac)FLR,"SEQ ID NO: 640, Ribosomal protein L29 [38], RPL29, RPL29P4",0.53 log 2
same,L/H ratio of acetylated peptide LIK(ac)DGLIIR,"SEQ ID NO: 641, 60S ribosomal protein L19 [46], RPL19",0.53 log 2
same,L/H ratio of acetylated peptide HLLPK(ac)IR,"SEQ ID NO: 642, 6-phosphogluconate dehydrogenase decarboxylating [253], PGD",0.53 log 2
same,L/H ratio of acetylated peptide LGK(ac)PSLVR,"SEQ ID NO: 643, TOB3 [280], ATAD3B",0.53 log 2
same,L/H ratio of acetylated peptide EQIYK(ac)LAK,"SEQ ID NO: 644, 40S ribosomal protein S13 [39], RPS13",0.54 log 2
same,L/H ratio of acetylated peptide VEYFLK(ac)WK,"SEQ ID NO: 645, Chromobox protein homolog 3 [50], CBX3",0.54 log 2
same,L/H ratio of acetylated peptide HYK(ac)TDFDK,"SEQ ID NO: 646, Isocitrate dehydrogenase [NADP] mitochondrial [275], IDH2",0.54 log 2
same,L/H ratio of acetylated peptide EGYAWAEDK(ac)EHCEEYGR,"SEQ ID NO: 647, tRNA-splicing ligase RtcB homolog [190], C22orf28",0.54 log 2
same,L/H ratio of acetylated peptide LAYIAHPK(ac)LGK,"SEQ ID NO: 648, Ribosomal protein L29 [103], RPL29, RPL29P4",0.55 log 2
same,L/H ratio of acetylated peptide IFSQETLTK(ac)AQILK,"SEQ ID NO: 649, Prenylcysteine oxidase 1 [415], PCYOX1",0.55 log 2
same,L/H ratio of acetylated peptide […](ac)QNK,"SEQ ID NO: 650, Dihydrolipoyl dehydrogenase mitochondrial [143], DLD",0.55 log 2
same,L/H ratio of acetylated peptide FYVK(ac)DHR,"SEQ ID NO: 651, CDGSH iron-sulfur domain-containing protein 1 [37], CISD1",0.55 log 2
same,L/H ratio of acetylated peptide SPVNTK(ac)SLFK,"SEQ ID NO: 652, Isoform 1 of DNA-dependent protein kinase catalytic subunit [1057], PRKDC",0.55 log 2
same,L/H ratio of acetylated peptide HIVK(ac)EFK,"SEQ ID NO: 653, Stress-70 protein mitochondrial [288], HSPA9",0.56 log 2
same,L/H ratio of acetylated peptide MYKEEGLK(ac)AFYK,"SEQ ID NO: 654, Isoform A of Phosphate carrier protein mitochondrial [214], SLC25A3",0.56 log 2
same,L/H ratio of acetylated peptide LDAQVK(ac)ELVLK,"SEQ ID NO: 655, Dolichyl-diphospho-oligosaccharide--protein glycosyltransferase subunit 1 precursor [598], RPN1",0.56 log 2
same,L/H ratio of acetylated peptide GYPTLK(ac)[…],"SEQ ID NO: 656, Thioredoxin domain-containing protein 5 [140], TXNDC5, MUTED, MUTED-TXNDC5",0.56 log 2
same,L/H ratio of acetylated peptide […](ac)EFR,"SEQ ID NO: 657, Isoform 1 of Clathrin heavy chain 1 [1264], CLTC",0.57 log 2
same,L/H ratio of acetylated peptide YK(ac)EALEQCR,"SEQ ID NO: 658, Isoform 2 of Antigen peptide transporter 2 [356], TAP2",0.57 log 2
same,L/H ratio of acetylated peptide YELTGK(ac)FER,"SEQ ID NO: 659, Annexin A6 [81], ANXA6",0.57 log 2
